Literature values in patent US9333228B2, “Nutritional supplement for recovery, repair, and maintenance” (Top Doctors Labs, LLC, priority 2010, dated 2016).

Test system: osteoporotic fractures
Settings: human clinical studies; vitamin K2 as MK-4

CC(C)=CCC/C(C)=C/CC/C(C)=C/CC/C(C)=C/CC1=C(C)C(=O)c2ccccc2C1=O [vitamin K2, menatetranone]
lower risk of osteoporotic fractures: up to 81%
